# Assay results taken from PMC7200204 (Ecotoxicology and environmental safety, 2020).
# Test system: anti-1-NAP monoclonal antibody (mAb)
# Assay: ciELISA with the obtained mAb under optimized conditions
# Assay type: binding, mouse
# Conditions: for CR (cross-reactivity): CR (%) = [IC50 (NAP)/IC50 (cross-reactant)] × 100, n=3; for IC50: Table 2, optimized condition, n=3
SMILES,CR (cross-reactivity) [%],IC50 [ng/mL]
"Oc1cc(O)c2ccccc2c1 [1,3-dihydroxy naphthalene]",6.9,178.0
"Oc1ccc(O)c2ccccc12 [1,4-dihydroxy naphthalene]",6.2,200.7
"Oc1cccc2c(O)cccc12 [1,5-dihydroxy naphthalene]",14.3,87.4
"Oc1ccc2c(O)cccc2c1 [1,6-dihydroxy naphthalene]",2.5,502.8
"Oc1ccc2cccc(O)c2c1 [1,7-dihydroxy naphthalen]",1.4,881.7
"Oc1cccc2cccc(O)c12 [1,8-dihydroxy naphthalene]",0.3,4303.4
"Oc1ccc2cc(O)ccc2c1 [2,6-dihydroxy naphthalene]",0.4,2839.7
CNC(=O)Oc1cccc2ccccc12 [Carbaryl],4.2,300.7
"Oc1cccc2ccccc12 [Hapten 1-naphthol, 1-naphthol]",100,12.5
"Oc1ccc2ccccc2c1 [Hapten 2-naphthol, 2-naphthol]",1.2,1005.0
